Three molecules from paper PMC6364417, “Kinase inhibitor library screening identifies synergistic drug combinations effective in sensitive and resistant melanoma cells” (Journal of Experimental & Clinical Cancer Research : CR, 2019) can be followed below.

Common to all, as to experiment: Kinase inhibitor library screening, PrestoBlue cell viability, 1 or 10 μM, 72 h
One series concerns 501Mel cells (parental). Particulars: 72 h. The gist of the method:
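Treatment: 72 h with inhibitor. Detection: PrestoBlue, plate reader. Output: viability as % untreated control. Replicates: duplicate minimum. Lines: parental plus Vemurafenib- or Dabrafenib-resistant derivatives.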

The test system of series [1] is 501Mel-GP cells (Dabrafenib-resistant). Particulars: 72 h.
Series [2] deals with 501Mel-XP cells (Vemurafenib-resistant). Particulars: 72 h.
The test system of another series is A375 cells (parental).
The test system of series [3] is A375-GP cells (Dabrafenib-resistant).
Series [4] relates to A375-XP cells (Vemurafenib-resistant).
A further series concerns IGR37 cells (parental).
In series [5] the test system is IGR37-GP cells (Dabrafenib-resistant).
Series [6] has as its system IGR37-XP cells (Vemurafenib-resistant).

`Cc1cnc(Nc2ccc(OCCN3CCCC3)cc2)nc1Nc1cccc(S(=O)(=O)NC(C)(C)C)c1` [TG101348 (SAR302503)]: in the series with 501Mel cells (parental) (501Mel Parental, 1μΜ, in %), the “cell viability, 501Mel Parental, 1μΜ” value is listed as 98.7. Also, the “cell viability, 501Mel Parental, 10μΜ” value in the series with 501Mel cells (parental) (501Mel Parental, 10μΜ, in %) stood at 1.4. For the same molecule, in [1] (501Mel GP, 10μΜ, in %), the “cell viability, 501Mel GP, 10μΜ” value turned out to be 1.0. Moreover, the “cell viability, 501Mel XP, 1μΜ” value in series [2] (501Mel XP, 1μΜ, in %) is 89.8. Also, in series [2] (501Mel XP, 10μΜ, in %), the “cell viability, 501Mel XP, 10μΜ” value is -0.1. The “cell viability, A375 Parental, 1μΜ” value in the series with A375 cells (parental) (A375 Parental, 1μΜ, 72 h, in %) amounted to 100.2. The “cell viability, A375 Parental, 10μΜ” value in the series with A375 cells (parental) (A375 Parental, 10μΜ, 72 h, in %) was determined as 12.9. In series [3] (A375 GP, 1μΜ, 72 h, in %), the “cell viability, A375 GP, 1μΜ” value is listed as 89.1. The “cell viability, A375 GP, 10μΜ” value in [3] (A375 GP, 10μΜ, 72 h, in %) was 15.0. Further, the “cell viability, A375 XP, 1μΜ” value in [4] (A375 XP, 1μΜ, 72 h, in %) is reported as 99.7. In series [4] (A375 XP, 10μΜ, 72 h, in %), the “cell viability, A375 XP, 10μΜ” value is on record as 17.0. For the same molecule, in the series on IGR37 cells (parental) (IGR37 Parental, 1μΜ, 72 h, in %), the “cell viability, IGR37 Parental, 1μΜ” value came out at 98.0. In the series with IGR37 cells (parental) (IGR37 Parental, 10μΜ, 72 h, in %), the “cell viability, IGR37 Parental, 10μΜ” value stood at 21.1. For the same molecule, the cell viability, IGR37 GP, 10μΜ in series [5] (IGR37 GP, 10μΜ, 72 h) was determined as 6.2%. Further, the “cell viability, IGR37 GP, 1μΜ” value in [5] (IGR37 GP, 1μΜ, 72 h, in %) stood at 95.7. In series [6] (IGR37 XP, 10μΜ, 72 h), this molecule showed a cell viability, IGR37 XP, 10μΜ of 2%. Also, the “cell viability, IGR37 XP, 1μΜ” value in series [6] (IGR37 XP, 1μΜ, 72 h, in %) stood at 94.2.

Usually viability stands for the share of living cells, or the viability signal relative to a control. Turning to `O=C(NC[C@H](O)CO)c1ccncc1Nc1ccc(I)cc1F` [AS703026], the viability at 1 µM in the series on 501Mel cells (parental) (Homo sapiens, read-out: cell viability, 501Mel Parental, 1μΜ) was found to be 50.1%; in series [1] (Homo sapiens, read-out: cell viability, 501Mel GP, 1μΜ) it was 95.8%; in series [2] (Homo sapiens, read-out: cell viability, 501Mel XP, 1μΜ) it was 79.8%; in the series with A375 cells (parental) (Homo sapiens, A-375, 72 h, read-out: cell viability, A375 Parental, 1μΜ), 18.5%; in series [3] (Homo sapiens, A-375, 72 h, read-out: cell viability, A375 GP, 1μΜ) it was 18.8%; in series [4] (Homo sapiens, A-375, 72 h, read-out: cell viability, A375 XP, 1μΜ), 15.5%. For the same molecule, the viability at 1 µM was determined as 33.3% in the series with IGR37 cells (parental) (Homo sapiens, IGR-37, 72 h, read-out: cell viability, IGR37 Parental, 1μΜ); 77% in series [5] (Homo sapiens, IGR-37, 72 h, read-out: cell viability, IGR37 GP, 1μΜ); 52.7% in series [6] (Homo sapiens, IGR-37, 72 h, read-out: cell viability, IGR37 XP, 1μΜ). In addition, the viability at 10 µM in the series on 501Mel cells (parental) (Homo sapiens, read-out: cell viability, 501Mel Parental, 10μΜ) was 57.6%; in [1] (Homo sapiens, read-out: cell viability, 501Mel GP, 10μΜ), 78.7%; in series [2] (Homo sapiens, read-out: cell viability, 501Mel XP, 10μΜ), 56%; with A375 cells (parental) (Homo sapiens, A-375, 72 h, read-out: cell viability, A375 Parental, 10μΜ), 19.6%; in series [3] (Homo sapiens, A-375, 72 h, read-out: cell viability, A375 GP, 10μΜ) it was 15.8%; in series [4] (Homo sapiens, A-375, 72 h, read-out: cell viability, A375 XP, 10μΜ), 9.6%. For the same molecule, the viability at 10 µM with IGR37 cells (parental) (Homo sapiens, IGR-37, 72 h, read-out: cell viability, IGR37 Parental, 10μΜ) came out at 35.4%; in [5] (Homo sapiens, IGR-37, 72 h, read-out: cell viability, IGR37 GP, 10μΜ), 59.4%; in series [6] (Homo sapiens, IGR-37, 72 h, read-out: cell viability, IGR37 XP, 10μΜ) it was 18.8%.

On to `Cn1cc(-c2ccc3ncc(Cc4ccc5ncccc5c4)n3n2)cn1` [NVP-BVU972], for which the “cell viability (kinase inhibitor library screening)” value in the series with 501Mel cells (parental) (501Mel Parental, 1μΜ) is listed as 107.5%; in the series on 501Mel cells (parental) (501Mel Parental, 10μΜ), 89.2%; in [1] (501Mel GP, 1μΜ), 89.9%; in series [1] (501Mel GP, 10μΜ) it was 69.4%; in series [2] (501Mel XP, 1μΜ), 74.0%; in series [2] (501Mel XP, 10μΜ), 62.7%. Also, the “cell viability (kinase inhibitor library screening)” value was determined as 100.0% with A375 cells (parental) (A375 Parental, 10μΜ, 72 h); 108.4% in the series with A375 cells (parental) (A375 Parental, 1μΜ, 72 h); 106.0% in [3] (A375 GP, 1μΜ, 72 h); 100.5% in series [3] (A375 GP, 10μΜ, 72 h); 109.6% in [4] (A375 XP, 1μΜ, 72 h); 105.5% in series [4] (A375 XP, 10μΜ, 72 h). The “cell viability (kinase inhibitor library screening)” value in the series with IGR37 cells (parental) (IGR37 Parental, 1μΜ, 72 h) was determined as 104.5%; with IGR37 cells (parental) (IGR37 Parental, 10μΜ, 72 h) it was 96.9%; in series [5] (IGR37 GP, 1μΜ, 72 h), 108.8%; in series [5] (IGR37 GP, 10μΜ, 72 h), 87.7%; in series [6] (IGR37 XP, 1μΜ, 72 h), 110.4%; in series [6] (IGR37 XP, 10μΜ, 72 h), 86.2%.
